Tests used:
[1] = molar heat capacity at constant pressure; details: 101.33 kPa, Small sample (50 mg) DSC
[2] = Molar enthalpy of transition or fusion; details: Crystal; DSC
[3] = Crystal; DTA

O=C(O)c1ccccc1 [benzoic acid]
[1]
Details | molar heat capacity at constant pressure [J/K/mol]
281.06 K, Crystal | 137.39
287.01 K, Crystal | 140.07
293.02 K, Crystal | 142.88
299 K, Crystal | 145.2
305.01 K, Crystal | 147.4
311.02 K, Crystal | 149.72
317 K, Crystal | 152.16
323.03 K, Crystal | 154.48
329.02 K, Crystal | 156.93
335.02 K, Crystal | 159.49
341.01 K, Crystal | 161.93
347.02 K, Crystal | 164.38
353 K, Crystal | 166.7
359.01 K, Crystal | 168.89
365.01 K, Crystal | 171.21
369.32 K, Crystal | 172.8
407.4 K, Liquid | 230.44
409 K, Liquid | 231.42
410.6 K, Liquid | 232.15
413.2 K, Liquid | 233.01
414.8 K, Liquid | 233.5
416.5 K, Liquid | 233.74
418 K, Liquid | 233.98
419.6 K, Liquid | 234.35
421.2 K, Liquid | 234.72
422.8 K, Liquid | 235.08
424.4 K, Liquid | 235.45
426 K, Liquid | 235.82
427.6 K, Liquid | 236.06
429.2 K, Liquid | 236.43
430.8 K, Liquid | 236.79
432 K, Liquid | 237.16

Details | Molar enthalpy of transition or fusion [kcal/mol] | Normal melting temperature [°C]
[2] | 4.02 | –
[3] | – | 121.80

CCCCOC(=O)c1ccc(O)cc1 [butyl 4-hydroxybenzoate]
[1]
Details | molar heat capacity at constant pressure [J/K/mol]
291.02 K, Crystal | 264.15
293.6 K, Crystal | 266.09
296.12 K, Crystal | 268.23
298.7 K, Crystal | 270.36
301.32 K, Crystal | 272.5
303.91 K, Crystal | 274.64
306.52 K, Crystal | 276.58
309.1 K, Crystal | 278.72
311.71 K, Crystal | 281.05
314.32 K, Crystal | 283.18
316.9 K, Crystal | 285.32
319.51 K, Crystal | 287.65
322.12 K, Crystal | 289.79
324.73 K, Crystal | 292.31
328.33 K, Crystal | 296.2
329.85 K, Crystal | 298.33
330.99 K, Crystal | 299.89
353.41 K, Liquid | 386.9
355.11 K, Liquid | 388.45
356.8 K, Liquid | 389.04
358.41 K, Liquid | 389.81
360.1 K, Liquid | 390.4
361.82 K, Liquid | 391.17
363.51 K, Liquid | 391.76
365.21 K, Liquid | 392.53
366.81 K, Liquid | 392.92
368.41 K, Liquid | 393.7
370.1 K, Liquid | 394.09
371.82 K, Liquid | 394.67
373.51 K, Liquid | 395.25
375.2 K, Liquid | 395.83
376.92 K, Liquid | 396.42
378.61 K, Liquid | 397
379.87 K, Liquid | 397.39

Details | Molar enthalpy of transition or fusion [kcal/mol] | Normal melting temperature [°C]
[2] | 6.1 | –
[3] | – | 67.34
